Entries after “also recorded” stand apart in the source; their conditions may differ. Square brackets hold non-standard residues; d marks the D form. Peptide text beside a SMILES is read from it. * marks the point of attachment. Benzoyl(4-SiFtBu2) = CC(C)(C)[Si](F)(c1ccc(C(=O)*)cc1)C(C)(C)C; αMePhe(2-F) = C[C@](N)(Cc1ccccc1F)C(=O)O; hPhe = N[C@@H](CCc1ccccc1)C(=O)O; Dap = NC[C@H](N)C(=O)O; Aib = CC(C)(N)C(=O)O
Assays:
human GLP-1 receptor [1] = target: T1, human GLP-1 receptor (Homo sapiens, UniProt P43220); test: Competitive binding (IC50) on HEK293-hGLP-1R cells with radioligand [Nle^14, [^125I]Tyr(3-I)^40]exendin-4; design: Dr. Timothy Kieffer (University of British Columbia); host or cells: HEK293; conditions: for IC50 ± SD (result in words): ligand range 10^-11 to 10^-5 M
T1 sequence (P43220 24-463): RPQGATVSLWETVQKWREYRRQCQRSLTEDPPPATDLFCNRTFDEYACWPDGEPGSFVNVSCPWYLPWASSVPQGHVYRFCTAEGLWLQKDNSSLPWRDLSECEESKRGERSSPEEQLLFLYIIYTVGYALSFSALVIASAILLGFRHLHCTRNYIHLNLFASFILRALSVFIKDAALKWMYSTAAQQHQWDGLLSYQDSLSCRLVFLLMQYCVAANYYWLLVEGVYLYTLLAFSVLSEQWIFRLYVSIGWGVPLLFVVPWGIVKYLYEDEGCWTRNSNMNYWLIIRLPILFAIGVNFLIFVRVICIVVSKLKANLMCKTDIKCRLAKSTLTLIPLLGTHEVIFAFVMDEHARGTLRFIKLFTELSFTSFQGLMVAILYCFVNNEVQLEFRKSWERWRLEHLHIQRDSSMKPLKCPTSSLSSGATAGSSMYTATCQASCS
Procedure: Dr. Timothy Kieffer (University of British Columbia, Vancouver, Canada). Cells were cultivated in high glucose DMEM (25.0 mM D-glucose, 3.97 mM GlutaMAX; REF-number: 61965–026; Fisher Scientific GmbH, Schwerte, Germany) supplemented with 10% fetal bovine serum and 1 mM sodium pyruvate. Medium for stably transfected HEK293-hGLP-1R cells was constantly supplemented with 1 mg/mL Geneticin (G-418 Biochrom, Merck KgaA, Darmstadt, Germany) as selection antibiotic. The cell line was kept at 37 °C in a humidified 5% CO2 atmosphere. One day (24 ± 2 h) prior to all in vitro experiments, the cultivated HEK293-h-GLP-1R cells were harvested using a mixture of trypsin/ethylenediaminetetraacetic acid (0.05%/0.02%) in phosphate-buffered saline (PBS) (Gibco, Germany) and centrifuged at 1300 rpm (ca. 190×g) for 3 min at room temperature (Heraeus Megafuge 16, Thermo Fisher, Germany). After centrifugation, the supernatant was disposed and the cell pellet was resuspended in culture medium. Cells were counted with a Neubauer hemocytometer (Paul Marienfeld GmbH & Co. KG, Lauda-Königshofen, Germany) and seeded in 24-well plates. IC50 values were determined by transferring 1.50 × 10^5 cells/mL per well into 24-well plates.
Detailed information on affinity experiments is provided in the SI. In brief, competitive binding studies were determined on HEK293-hGLP-1R cells (1.50 × 10^5 cells in 1 mL/well) after incubation at 4 °C for 2 hours, using [^125I]Tyr(3-I)^40–3 (0.41 nM/well) as reference radioligand (n = 3).
Dr. Timothy J. Kieffer (University of British Columbia, Vancouver, Canada). Cells were cultivated in high glucose DMEM (25.0 mM D-glucose, 3.97 mM GlutaMAX; REF-number: 61965-026; Fisher Scientific GmbH, Schwerte, Germany) supplemented with 10% fetal bovine serum and 1 mM sodium pyruvate. Medium for stably transfected HEK293-hGLP-1R cells was constantly supplemented with 1 mg/mL Geneticin (G-418 Biochrom, Merck KgaA, Darmstadt, Germany) as selection antibiotic. The cell line was kept at 37 °C in a humidified 5% CO2 atmosphere. One day (24 ± 2 h) prior to all in vitro experiments, the cultivated cells were harvested using a mixture of trypsin/ethylenediaminetetraacetic acid (0.05%/0.02%) in phosphate-buffered saline (PBS) (Merck KgaA, Darmstadt, Germany) and centrifuged at 1300 rpm (ca. 190 × g) for 3 min at room temperature (Heraeus Megafuge 16, Thermo Fisher Scientific, Darmstadt, Germany). After centrifugation, the supernatant was disposed and the cell pellet was resuspended in culture medium. Cells were counted with a Neubauer hemocytometer (Paul Marienfeld GmbH & Co. KG, Lauda-Königshofen, Germany) and seeded in 24-well plates (Greiner Bio-One, Kremsmünster, Austria). IC50 values were determined by transferring 1.50 × 10^5 cells/mL per well into 24-well plates (Greiner Bio-One, Kremsmünster, Austria).
The culture medium was removed and the cells were washed with 500 µL of Hank’s balanced salt solution (HBSS) (Merck KGaA, Darmstadt, Germany), containing 1% bovine serum albumin (BSA) (Merck KGaA, Darmstadt, Germany). Afterwards, 200 µL of HBSS (1% BSA) were added to each well and equilibrated on ice (4 °C) for 15 min. 25 µL/well of either HBSS (1% BSA) (= control) or of solutions, containing the respective unlabeled ligand in increasing concentrations (10^-10 - 10^-4 M in HBSS) were added, followed by the addition of 25 µL of [Nle^14, [^125I]Tyr(3-I)^40]exendin-4 in HBSS (1% BSA) to each well. Experiments were carried out in triplicates for each concentration. The final concentrations of unlabeled ligand ranged from 10^-11 - 10^-5 M and the final radioligand concentration was 0.41 nM in all binding assays. The cells were incubated for two hours at 4 °C. Incubation was terminated by removal of the incubation medium. The cells were washed with 250 µL of HBSS (1% BSA) and the wash medium was combined with the respective supernatant. This fraction represents the amount of free radioligand. The cells were lysed by addition of 250 µL of 1 M aqueous NaOH. […]

human GLP-1 receptor [2] = target: T1, human GLP-1 receptor; test: as above; design: Dr. Timothy Kieffer (University of British Columbia); host or cells: HEK293; conditions: w/o BSA, HBSS
[3] = design: method as in Gotthardt et al., 2007; conditions: rats, pre-administration; ref Gotthardt et al., 2007; cited from earlier work
[4] = Stability study of the reference radioligand stock solution (RCP by radio-RP-HPLC); type: physicochemical
Procedure: ^125I-labeling. The radioiodinated reference ligand [Nle^14, [^125I]Tyr(3-I)^40]exendin-4 ([^125I]Tyr(3-I)^40–3) was prepared via the Iodogen method (Salacinski et al., [1981]), with some minor modifications. […] The solution was transferred to a vial, which has been precoated with 15.0 μg Iodogen (34.7 nmol, 139 eq.). Afterwards, 15 ± 5 MBq [^125I] NaI (74 MBq/nmol, 3.7 GBq/mL in 40 mM NaOH, Hartmann Analytic, Braunschweig, Germany) (5.00 μL, 250 pmol, 1.00 eq.) were added, the reaction solution was incubated for 15 min at r.t. and 150 μL thereof were purified by radio-RP-HPLC (0% B (2 min) ➔ 0–37.5% B (3 min) ➔ 37.5% B (35 min) ➔ 38% B (10 min), Method A*, 1 mL/min) to afford 3.15 MBq (48.8% RCY, > 99% RCP) of product [^125I]Tyr(3-I)^40–3. The radioligand was stored in the HPLC solvent (stock solution) at − 80 °C until further use. The radioligand stock solution was used to a maximum of 14 days to ensure a RCP of > 92% (Table 1 in the Additional file 1) and replaced by freshly prepared radioligand afterwards. Prior to the in vitro experiments, the radioligand was dissolved in HBSS (with or w/o 1% BSA) to achieve a final concentration of 0.41 nM in the respective assays. *Method A: solvent A = water + 0.1% TFA, solvent B = acetonitrile + 2% water + 0.1% TFA.
Table 1: Stability study of reference radioligand [^125I]Tyr(3-I)^40]-3, (n = 1).

Question: With `C[C@@H](O)[C@H](NC(=O)CNC(=O)[C@H](CCC(=O)O)NC(=O)C(C)(C)NC(=O)[C@@H](N)Cc1c[nH]cn1)C(=O)N[C@@](C)(Cc1ccccc1F)C(=O)N[C@H](C(=O)N[C@@H](CO)C(=O)N[C@@H](CC(=O)O)C(=O)N[C@@H](CNC(=O)c1ccc([Si](F)(C(C)(C)C)C(C)(C)C)cc1)C(=O)N[C@@H](CCc1ccccc1)C(N)=O)[C@@H](C)O` [Peptide 5, H-L-His-Aib-L-Glu-Gly-L-Thr-L-(α-Me)Phe(2-F)-L-Thr-L-Ser-L-Asp-L-Dap(SiFA)-L-homoPhe-NH2] as the compound, how does the IC50 (human GLP-1 receptor [1]) read?
Answer: 189 ± 35 nM

Question: And the “IC50 ± SD (result in words)” value (human GLP-1 receptor [1]; w/ BSA (1% BSA))?
Answer: no detectable affinity

Question: What about the “maximal radioligand displacement (of maximal radioligand binding)” value (human GLP-1 receptor [2]) of the same compound?
Answer: 61–69%

Question: Which “decrease of kidney uptake of [^111In]In-DTPA-exendin-4” value [3] does the source give for `NCCCC[C@H](N)C(=O)O` [L-lysine] here?
Answer: did not show any effect

Question: With `CC(C)C[C@H](NC(=O)[C@H](CNC(=O)c1ccc([Si](F)(C(C)(C)C)C(C)(C)C)cc1)NC(=O)[C@H](CO)NC(=O)[C@H](CCc1ccccc1)NC(=O)[C@@H](NC(=O)[C@H](CC(=O)O)NC(=O)[C@H](CO)NC(=O)[C@@H](NC(=O)[C@](C)(Cc1ccccc1F)NC(=O)[C@@H](NC(=O)CNC(=O)[C@H](CCC(=O)O)NC(=O)C(C)(C)NC(=O)[C@@H](N)Cc1c[nH]cn1)[C@@H](C)O)[C@@H](C)O)C(C)C)C(=O)N[C@@H](CCC(=O)O)C(N)=O` [Peptide 11, H-L-His-Aib-L-Glu-Gly-L-Thr-L-(α-Me)Phe(2-F)-L-Thr-L-Ser-L-Asp-L-Val-L-homoPhe-L-Ser-L-Dap(SiFA)-L-Leu-L-Glu-NH2] (H-H[Aib]EGT[αMePhe(2-F)]TSDV[hPhe]S[Dap](Benzoyl(4-SiFtBu2))LE-NH2) as the compound, how does the IC50 (human GLP-1 receptor [1]) read?
Answer: 7120 ± 2470 nM

Question: For “H-L-His-Aib-L-Glu-Gly-L-Thr-L-(α-Me)Phe(2-F)-L-Thr-L-Ser-L-Asp-O2Oc-L/D-Dap(SiFA)-L-Leu-L-Glu-NH2 [Peptide 13]”, which “IC50 ± SD (result in words)” value (human GLP-1 receptor [1]; w/ and w/o BSA) is on record?
Answer: no radioligand displacement was observed; also recorded: no detectable affinity n = 2 (w/ and w/o BSA)

Question: For “[Nle^14, [^125I]Tyr(3-I)^40]exendin-4 [[^125I]Tyr(3-I)^40-3]”, which RCP ([4]; 0 days after radioiodination, stock in HPLC solvent at −80 °C, n = 4) is on record?
Answer: ≥ 95% (n = 4)

Question: And the RCP ([4]; 4 days after radioiodination, stock in HPLC solvent at −80 °C)?
Answer: 95%

Question: And the RCP ([4]; 9 days after radioiodination, stock in HPLC solvent at −80 °C)?
Answer: 95%

Question: And the RCP ([4]; 16 days after radioiodination, stock in HPLC solvent at −80 °C)?
Answer: 92%

Question: And the RCP ([4]; 20 days after radioiodination, stock in HPLC solvent at −80 °C)?
Answer: 82%

Question: What about the RCP ([4]; 24 days after radioiodination, stock in HPLC solvent at −80 °C) of the same compound?
Answer: 82%

Question: What about the RCP ([4]; 29 days after radioiodination, stock in HPLC solvent at −80 °C) of the same compound?
Answer: 78%

Question: What about the RCP ([4]; 36 days after radioiodination, stock in HPLC solvent at −80 °C) of the same compound?
Answer: 78%

Question: And the RCP ([4]; stock solution used to a maximum of 14 days, −80 °C)?
Answer: > 92%

Question: For `CC(C)C[C@H](NC(=O)[C@H](CNC(=O)c1ccc([Si](F)(C(C)(C)C)C(C)(C)C)cc1)NC(=O)[C@H](CO)NC(=O)[C@H](CO)NC(=O)[C@@H](NC(=O)[C@H](CC(=O)O)NC(=O)[C@H](CO)NC(=O)[C@@H](NC(=O)[C@](C)(Cc1ccccc1F)NC(=O)[C@@H](NC(=O)CNC(=O)[C@H](CCC(=O)O)NC(=O)C(C)(C)NC(=O)[C@@H](N)Cc1c[nH]cn1)[C@@H](C)O)[C@@H](C)O)C(C)C)C(=O)N[C@@H](CCC(=O)O)C(N)=O` [Peptide 10, H-L-His-Aib-L-Glu-Gly-L-Thr-L-(α-Me)Phe(2-F)-L-Thr-L-Ser-L-Asp-L-Val-L-Ser-L-Ser-L-Dap(SiFA)- L-Leu-L-Glu-NH2] (H-H[Aib]EGT[αMePhe(2-F)]TSDVSS[Dap](Benzoyl(4-SiFtBu2))LE-NH2), which IC50 (human GLP-1 receptor [1]) is on record?
Answer: 2950 ± 310 nM

Question: For “H-L-His-Aib-L-Glu-Gly-L-Thr-L-(α-Me)Phe-L-Thr-L-Ser-L-Asp-OH [Peptide 6]”, which “IC50 ± SD (result in words)” value (human GLP-1 receptor [1]; w/ BSA (1% BSA)) is on record?
Answer: no detectable affinity n = 1 (w/ BSA)

Question: What does the source list for `C[C@@H](O)[C@H](NC(=O)CNC(=O)[C@H](CCC(=O)O)NC(=O)C(C)(C)NC(=O)[C@@H](N)Cc1c[nH]cn1)C(=O)N[C@@](C)(Cc1ccccc1)C(=O)N[C@H](C(=O)N[C@@H](CO)C(=O)N[C@@H](CC(=O)O)C(=O)N[C@@H](CNC(=O)c1ccc([Si](F)(C(C)(C)C)C(C)(C)C)cc1)C(=O)N[C@@H](CCc1ccccc1)C(N)=O)[C@@H](C)O` [Peptide 4, H-L-His-Aib-L-Glu-Gly-L-Thr-L-(α-Me)Phe-L-Thr-L-Ser-L-Asp-L-Dap(SiFA)-L-homoPhe-NH2]?
Answer: IC50 (human GLP-1 receptor [1]): 2400 nM; IC50 ± SD (result in words) (human GLP-1 receptor [1]; w/ BSA (1% BSA)): no detectable affinity; maximal radioligand displacement (of maximal radioligand binding) (human GLP-1 receptor [2]): 61–69%

Question: Which “IC50 ± SD (result in words)” value (human GLP-1 receptor [1]; w/ and w/o BSA) does the source give for “H-L-His-Aib-L-Glu-Gly-L-Thr-L-(α-Me)Phe-L-Thr-L-Ser-L-Asp-L-Phe(4-I)-L-homoPhe-NH2 [Peptide 8]” here?
Answer: eliminated any detectable affinity; also recorded: no detectable affinity n = 2 (w/ and w/o BSA)

Question: For “H-L-His-Aib-L-Glu-Gly-L-Thr-L-(α-Me)Phe(2-F)-L-Thr-L-Ser-L-Asp-NH2 [Peptide 7]”, which “IC50 ± SD (result in words)” value (human GLP-1 receptor [1]; w/ and w/o BSA) is on record?
Answer: no detectable affinity n = 2 (w/ and w/o BSA)

Question: With “H-L-His-Aib-L-Glu-Gly-L-Thr-L-(α-Me)Phe(2-F)-L-Thr-L-Ser-L-Asp-L-Val-L-Dap(SiFA)-NH2 [Peptide 9]” as the compound, how does the “IC50 ± SD (result in words)” value (human GLP-1 receptor [1]; w/ and w/o BSA) read?
Answer: no affinity was detected; also recorded: no detectable affinity n = 2 (w/ and w/o BSA)
